# Measured values reported in patent publication US9376418B2, “Substituted pyridine spleen tyrosine kinase (SYK) inhibitors” (Merck Sharp & Dohme Corp., priority 2012, dated 2016).
# Target: T1, recombinant human GST-SYK (Homo sapiens, UniProt P43405)
# T1 construct: purchased Carna Biosciences 08-176
# Assay: Homogeneous Time-Resolved Fluorescence (HTRF) assay for the recombinant human Syk enzyme
# Type: biochemical
# Conditions: HTRF assay, recombinant human GST-SYK; IC50 given as class symbols; read-out: rhSYK Activity
# In short: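 GST-hSYK ([…]) was preincubated with inhibitor (0.1% DMSO final) for 10 minutes at room temperature in 15 mM Tris-HCl pH 7.5, 0.01% tween 20, 2 mM DTT. Biotinylated peptide (250 nM), 5 mM magnesium and 25 μM ATP started a 45-minute room-temperature reaction, read by time-resolved fluorescence.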
row,Structure (SMILES),IC50 [nM]
1,"Cc1cc(Nc2nccc(C(F)(F)F)n2)cc(-c2cncc([C@]3(O)CC[C@@H](C(=O)O)CC3)c2)c1 [Example 9.69, cis-4-hydroxy-4-[5-(3-methyl-5-{[4-(trifluoromethyl)pyrimidin-2-yl]amino}phenyl)pyridin-3-yl]cyclohexanecarboxylic acid]",< 100
2,"Cc1cc(Nc2nccc(C(F)(F)F)n2)cc(-c2cncc([C@]3(O)CC[C@H](C(=O)O)CC3)c2)c1 [Example 9.70, trans-4-hydroxy-4-[5-(3-methyl-5-{[4-(trifluoromethyl)pyrimidin-2-yl]amino}phenyl)pyridin-3-yl]cyclohexanecarboxylic acid]",< 100
3,"Cc1cc(Nc2nccc(C(F)(F)F)n2)cc(-c2cncc(C(C)(C)O)c2)c1 [Example 9.71, 2-[5-(3-methyl-5-{[4-(trifluoromethyl)pyrimidin-2-yl]amino}phenyl)pyridin-3-yl]propan-2-ol]",< 100
4,"CC(=O)C(C)(O)c1cncc(-c2cc(C)cc(Nc3nccc(C(F)(F)F)n3)c2)c1 (centres unmarked) [Example 9.72, 3-hydroxy-3-[5-(3-methyl-5-{[4-(trifluoromethyl)pyrimidin-2-yl]amino}phenyl)pyridin-3-yl]butan-2-one]",< 100
5,"Cc1cc(Nc2nccc(C(F)(F)F)n2)cc(-c2cncc(C(C)(O)C(C)O)c2)c1 (centres unmarked) [Example 9.73, 2-[5-(3-methyl-5-{[4-(trifluoromethyl)pyrimidin-2-yl]amino}phenyl)pyridin-3-yl]butane-2,3-diol]",< 100
6,"Cc1cc(Nc2nccc(C3CC3)n2)cc(-c2cncc(C(O)(CO)CO)c2)c1 [Example 9.74, 2-(5-{3-[(4-cyclopropylpyrimidin-2-yl)amino]-5-methylphenyl}pyridin-3-yl)propane-1,2,3-triol]",1000 to 10000
7,"Cc1cc(Nc2nccc(C)n2)cc(-c2cncc(C(O)(CO)CO)c2)c1 [Example 9.75, 2-(5-{3-methyl-5-[(4-methylpyrimidin-2-yl)amino]phenyl}pyridin-3-yl)propane-1,2,3-triol]",100 to 1000
8,"Cc1cc(Nc2nccc(C(F)(F)F)n2)cc(-c2cncc(C3(O)CCC(O)CC3)c2)c1 (centres unmarked) [Example 9.76, 1-[5-(3-methyl-5-{[4-(trifluoromethyl)pyrimidin-2-yl]amino}phenyl)pyridin-3-yl]cyclohexane-1,4-diol]",< 100
9,"CCOC(=O)C1CCCC(O)(c2cncc(-c3cc(C)cc(Nc4nccc(C(F)(F)F)n4)c3)c2)C1 (centres unmarked) [Example 9.77, ethyl 3-hydroxy-3-[5-(3-methyl-5-{[4-(trifluoromethyl)pyrimidin-2-yl]amino}phenyl)pyridin-3-yl]cyclohexanecarboxylate]",100 to 1000
10,"Cc1cc(Nc2nccc(C(F)(F)F)n2)cc(-c2cncc(C3(O)COC(C)(C)OC3)c2)c1 [Example 9.78, 2,2-dimethyl-5-[5-(3-methyl-5-{[4-(trifluoromethyl)pyrimidin-2-yl]amino}phenyl)pyridin-3-yl]-1,3-dioxan-5-ol]",100 to 1000
11,"Cc1cc(Nc2nccc(C(F)(F)F)n2)cc(-c2cncc(C3(O)COC3)c2)c1 [Example 9.79, 3-[5-(3-methyl-5-{[4-(trifluoromethyl)pyrimidin-2-yl]amino}phenyl)pyridin-3-yl]oxetan-3-ol]",< 100
12,"Cc1cc(Nc2nccc(C(F)(F)F)n2)cc(-c2cncc(C(O)(CO)CO)c2)c1 [Example 9.80, 2-[5-(3-methyl-5-{[4-(trifluoromethyl)pyrimidin-2-yl]amino}phenyl)pyridin-3-yl]propane-1,2,3-triol]",< 100
13,"Cc1cc(Nc2nccc(C(F)(F)F)n2)cc(-c2cncc(C(C)(O)C(F)(F)F)c2)c1 (centres unmarked) [Example 9.81, 1,1,1-trifluoro-2-[5-(3-methyl-5-{[4-(trifluoromethyl)pyrimidin-2-yl]amino}phenyl)pyridin-3-yl]propan-2-ol]",< 100
14,"Cc1cc(Nc2nccc(C(F)(F)F)n2)cc(-c2cncc(C3(O)CCN(C(N)=O)CC3)c2)c1 [Example 10.1, 4-Hydroxy-4-[5-(3-methyl-5-{[4-(trifluoromethyl)pyrimidin-2-yl]amino}phenyl)pyridin-3-yl]piperidine-1-carboxamide]",< 100
15,"Cc1cc(Nc2nccc(C(F)(F)F)n2)cc(-c2cncc(C3(O)CCN(C(N)=O)C3)c2)c1 (centres unmarked) [Example 10.2, 3-hydroxy-3-[5-(3-methyl-5-{[4-(trifluoromethyl)pyrimidin-2-yl]amino}phenyl)pyridin-3-yl]pyrrolidine-1-carboxamide]",< 100
16,"Cc1cc(Nc2nccc(C(F)(F)F)n2)cc(-c2ccc(C3(O)CCN(C(N)=O)CC3)nc2)c1 [Example 10.3, 4-hydroxy-4-[5-(3-methyl-5-{[4-(trifluoromethyl)pyrimidin-2-yl]amino}phenyl)pyridin-2-yl]piperidine-1-carboxamide]",< 100
17,"Cc1cc(Nc2nccc(C(F)(F)F)n2)cc(-c2ccc(C3(O)CCN(C(N)=O)C3)nc2)c1 (centres unmarked) [Example 10.4, 3-hydroxy-3-[5-(3-methyl-5-{[4-(trifluoromethyl)pyrimidin-2-yl]amino}phenyl)pyridin-2-yl]pyrrolidine-1-carboxamide]",< 100
18,"Cc1cc(Nc2nccc(C(F)(F)F)n2)cc(-c2ccc(C3(O)CCNC(=O)CC3)nc2)c1 (centres unmarked) [Example 11.1, 5-Hydroxy-5-[5-(3-methyl-5-{[4-(trifluoromethyl)pyrimidin-2-yl]amino}phenyl)pyridin-2-yl]azepan-2-one]",< 100

row,Structure (SMILES),IC50 [nM]
1,"Cc1cc(Nc2nccc(C(F)(F)F)n2)cc(-c2ccc(Oc3ccc(C(N)=O)cc3)nc2)c1 [Example 12.3, 4-{[5-(3-Methyl-5-{[4-(trifluoromethyl)pyrimidin-2-yl]amino}phenyl)pyridin-2-yl]oxy}benzamide]",100 to 1000
2,"Cc1cc(Nc2nccc(C(F)(F)F)n2)cc(-c2ccc(C(C)(O)c3ccc(C(N)=O)cc3)nc2)c1 (centres unmarked) [Example 12.4, 4-{1-hydroxy-1-[5-(3-methyl-5-{[4-(trifluoromethyl)pyrimidin-2-yl]amino}phenyl)pyridin-2-yl]ethyl}benzamide]",< 100
3,"Cc1cc(Nc2nccc(C(F)(F)F)n2)cc(-c2ccc(C(=O)N3CCNC(=O)C3C)nc2)c1 (centres unmarked) [Example 12.5, 3-methyl-4-{[5-(3-methyl-5-{[4-(trifluoromethyl)pyrimidin-2-yl]amino}phenyl)pyridin-2-yl]carbonyl}piperazin-2-one]",< 100
4,"Cc1cc(Nc2nccc(C(F)(F)F)n2)cc(-c2ccc(C(N)=O)nc2)c1 [Example 12.6, 5-(3-methyl-5-{[4-(trifluoromethyl)pyrimidin-2-yl]amino}phenyl)pyridine-2-carboxamide]",< 100
5,"Cc1cc(Nc2nccc(C(F)(F)F)n2)cc(-c2ccc(NCC(=O)NCC(N)=O)nc2)c1 [Example 12.7, N-[5-(3-methyl-5-{[4-(trifluoromethyl)pyrimidin-2-yl]amino}phenyl)pyridin-2-yl]glycylglycinamide]",< 100
6,"Cc1cc(Nc2nccc(C(F)(F)F)n2)cc(-c2ccc(NC3(C(N)=O)CC3)nc2)c1 [Example 12.8, 1-{[5-(3-methyl-5-{[4-(trifluoromethyl)pyrimidin-2-yl]amino}phenyl)pyridin-2-yl]amino}cyclopropanecarboxamide]",< 100
7,"Cc1cc(Nc2nccc(C(F)(F)F)n2)cc(-c2ccc(N3CC[C@H]3C(N)=O)nc2)c1 [Example 12.9, (2S)-1-[5-(3-methyl-5-{[4-(trifluoromethyl)pyrimidin-2-yl]amino}phenyl)pyridin-2-yl]azetidine-2-carboxamide]",< 100
8,"Cc1cc(Nc2nccc(C(F)(F)F)n2)cc(-c2ccc(CCC#N)nc2)c1 [Example 13.1, 3-[5-(3-Methyl-5-{[4-(trifluoromethyl)pyrimidin-2-yl]amino}phenyl)pyridin-2-yl]propanenitrile]",< 100
9,"Cc1cc(Nc2nccc(C(F)(F)F)n2)cc(-c2ccc(CCC(=O)O)nc2)c1 [Example 13.2, 3-[5-(3-Methyl-5-{[4-(trifluoromethyl)pyrimidin-2-yl]amino}phenyl)pyridin-2-yl]propanoic acid]",< 100
10,"Cc1cc(Nc2nccc(C(F)(F)F)n2)cc(-c2ccc(CCC(N)=O)nc2)c1 [Example 13.3, 3-[5-(3-Methyl-5-{[4-(trifluoromethyl)pyrimidin-2-yl]amino}phenyl)pyridin-2-yl]propanamide]",< 100
11,"Cc1cc(Nc2nccc(C(F)(F)F)n2)cc(-c2ccc(CCc3nnn[nH]3)nc2)c1 [Example 13.4, N-(3-Methyl-5-{6-[2-(1H-tetrazol-5-yl)ethyl]pyridin-3-yl}phenyl)-4-(trifluoromethyl)pyrimidin-2-amine]",< 100
12,"Cc1cc(Nc2nccc(C(F)(F)F)n2)cc(-c2ccc(CCc3noc(=O)[nH]3)nc2)c1 [Example 13.5, 3-{2-[5-(3-Methyl-5-{[4-(trifluoromethyl)pyrimidin-2-yl]amino}phenyl)pyridin-2-yl]ethyl}-1,2,4-oxadiazol-5(4H)-one]",< 100
13,"Cc1cc(Nc2nccc(C(F)(F)F)n2)cc(-c2ccc(CN3CCCC3=O)nc2)c1 [Example 14.1, 1-{[5-(3-Methyl-5-{[4-(trifluoromethyl)pyrimidin-2-yl]amino}phenyl)pyridin-2-yl]methyl}pyrrolidin-2-one]",< 100
14,"COCCNc1cncc(-c2cc(C)cc(Nc3nccc(C(F)(F)F)n3)c2)c1 [Example 15.1, N-(3-{5-[(2-Methoxyethyl)amino]pyridin-3-yl}-5-methylphenyl)-4-(trifluoromethyl)pyrimidin-2-amine]",< 100
15,Cc1cc(Nc2nccc(C(F)(F)F)n2)cc(-c2cncc(NCC3CC3)c2)c1 [Example 15.11],< 100
16,Cc1cc(Nc2nccc(C(F)(F)F)n2)cc(-c2cncc(NCCN3CCOCC3)c2)c1 [Example 15.16],< 100
17,"Cc1cc(Nc2nccc(C(F)(F)F)n2)cc(-c2cncc(NCC(=O)O)c2)c1 [Example 15.20, N-[5-(3-methyl-5-{[4-(trifluoromethyl)pyrimidin-2-yl]amino}phenyl)pyridin-3-yl]glycine]",< 100
